In patent US20050009924A1 (priority 2003, published 2005):
Where two headings read alike, the source gives them in different places.

Assays:
human hepatoma G2 cells = assay: Cytotoxicity assay (XTT colorimetric), Hep G2; assay type: cell-based; conditions: 48 h of drug exposure
rat glioma C6 cells = assay: Cytotoxicity assay (XTT colorimetric), C6 cells; assay type: cell-based; conditions: 48 h of drug exposure
[1] = system: hepatitis B virus transfected hepatoma cell lines, HepG 2.2.15 cells; assay: Cytotoxicity assay, 2.2.15 cells; assay type: cell-based, human; conditions: 48 h of drug exposure
[2] = system: transcriptional activity of hTERT; assay: SEAP reporter assay of hTERT expression, PhTERT-SEAP (hTERT-BJ1); assay type: cell-based, human; conditions: hTERT-BJ1
Method in brief: (§1)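 SEAP activity, read as rate of 405 nm absorbance rise with 12 mM p-nitrophenyl phosphate in diethanolamine/MgCl2/homoarginine buffer after 65 °C, 10 min heat inactivation, reports hTERT or CMV promoter activity. G418-selected stable H1299 or hTERT-BJ1 reporter lines were exposed to drug for 24 h.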

[3] = system: transcriptional activity of hTERT; assay: SEAP reporter assay of hTERT expression, PhTERT-SEAP (H1299); assay type: cell-based, human; conditions: hTERT-H1299
Method in brief: as §1

[4] = system: non-small-cell lung cancer cells H1299
Procedure: (§2) The tetrazolium reagent (MTT; 3-(4,5-di-methylthiazol)-2,5-diphenyl tetrazolium bromide, USB) was designed to yield a colored formazan upon metabolic reduction by viable cells. Approximately […] cells were plated onto each well of a 96-well plate and incubated in 5% CO2 at 37° C. for 24 h. To assess the in vitro cytotoxicity, each compound was dissolved in DMSO and prepared immediately before the experiments and was diluted into the complete medium before addition to cell cultures. Test compounds were then added to the culture medium for designated various concentrations. After 48 h, an amount of 25 μL of MTT was added to each well, and the samples were incubated at 37° C. for 4 h. A 100 μL solution of lysis buffer containing 20% SDS and 50% N,N-dimethylformamide was added to each well and incubated at 37° C. for another 16 h. The absorbency at 550 nm was measured using an ELISA reader.
(§3) Non small lung cancer cells H1299 (telomerase positive) were grown in RPMI 1640 media supplemented with 10% fetal bovine serum, 100 units/mL penicillin and 100 mg/mL streptomycin in a humidified atmosphere with 5% CO2 at 37° C. The hTERT immortalized hTERT-BJ1 (BD Biosciences Clontech)^39 were grown in DMEM media supplemented with 10% fetal calf serum, 100 units/mL penicillin and 100 mg/mL streptomycin, 1 mM sodium pyruvate, and 4 mM I-arginine in a humidified atmosphere with 5% CO2 at 37° C. Culture media were changed every 3 days. […] The stable clones derived from H1299 or hTERT-BJ1 were cultured using conditions that are similar to their parental cells.

Procedure for hTERT-BJ1 cells: as §2, §3

## O=C1c2cccc(NCCNCCO)c2C(=O)c2cccc(NCCNCCO)c21 [IVe, 1,5-Bis[2-(2-Aminoethylamino)ethanol]anthraquinone]
Human hepatoma G2 cells
  IC50: 1.2 ± 0.02 µM
Rat glioma C6 cells
  IC50: 1.17 µM
[1]
  IC50: 8.35 µM
[2]; 2.4 μM
  Relative SEAP activity (%): 60 ± 11.6%
[2]; 24 μM
  Relative SEAP activity (%): 40 ± 17.3%
[2]; 242 μM
  Relative SEAP activity (%): 52 ± 19.1%
[3]; 2.4 μM
  Relative SEAP activity (%): 87 ± 3.8%
[3]; 24 μM
  Relative SEAP activity (%): 43 ± 5.5%
[3]; 242 μM
  Relative SEAP activity (%): 40 ± 6.7%
hTERT-BJ1 cells; 2.4 µM
  Relative MTT viability (%): 84 ± 19.8%
hTERT-BJ1 cells; 24 µM
  Relative MTT viability (%): 60 ± 11.2%
hTERT-BJ1 cells; 242 µM
  Relative MTT viability (%): 44 ± 12.9%
[4]; 2.4 µM
  Relative MTT viability (%): 97 ± 8.7%
[4]; 24 µM
  Relative MTT viability (%): 37 ± 3.9%
[4]; 242 µM
  Relative MTT viability (%): 11 ± 4.1%

## O=C1c2cccc(NCCCO)c2C(=O)c2cccc(NCCCO)c21 [IVh, 1,5-Bis(propanolamino)anthraquinone]
Human hepatoma G2 cells
  IC50: > 20 µM
Rat glioma C6 cells
  IC50: > 20 µM
[1]
  IC50: > 20 µM
[2]; 2.8 μM
  Relative SEAP activity (%): 41 ± 12.5%
[2]; 28 μM
  Relative SEAP activity (%): 0 ± 22.1%
[2]; 282 μM
  Relative SEAP activity (%): (−3) ± 10.0^ %
[3]; 2.8 μM
  Relative SEAP activity (%): 88 ± 4.9%
[3]; 28 μM
  Relative SEAP activity (%): 69 ± 5.4%
[3]; 282 μM
  Relative SEAP activity (%): 33 ± 2.2%
hTERT-BJ1 cells; 2.8 µM
  Relative MTT viability (%): 72 ± 7.4%
hTERT-BJ1 cells; 28 µM
  Relative MTT viability (%): 39 ± 10.5%
hTERT-BJ1 cells; 282 µM
  Relative MTT viability (%): 26 ± 15.9%
[4]; 2.8 µM
  Relative MTT viability (%): 107 ± 5.0%
[4]; 28 µM
  Relative MTT viability (%): 49 ± 3.5%
[4]; 282 µM
  Relative MTT viability (%): 40 ± 10.4%

## O=C1c2cccc(NCCCCO)c2C(=O)c2cccc(NCCCCO)c21 [IVk, 1,5-Bis(butanolamino-)-anthraquinone]
Human hepatoma G2 cells
  IC50: > 20 µM
Rat glioma C6 cells
  IC50: > 20 µM
[1]
  IC50: 10.3 ± 0.24 µM
[2]; 2.6 μM
  Relative SEAP activity (%): 114 ± 20.5%
[2]; 26 μM
  Relative SEAP activity (%): 113 ± 21.6%
[2]; 265 μM
  Relative SEAP activity (%): 127 ± 19.9%
[3]; 2.6 μM
  Relative SEAP activity (%): 89 ± 4.9%
[3]; 26 μM
  Relative SEAP activity (%): 71 ± 9.8%
[3]; 265 μM
  Relative SEAP activity (%): 27 ± 2.0%
hTERT-BJ1 cells; 2.6 µM
  Relative MTT viability (%): 101 ± 10.5%
hTERT-BJ1 cells; 26 µM
  Relative MTT viability (%): 101 ± 8.8%
hTERT-BJ1 cells; 265 µM
  Relative MTT viability (%): 91 ± 11.8%
[4]; 2.6 µM
  Relative MTT viability (%): 114 ± 8.1%
[4]; 26 µM
  Relative MTT viability (%): 110 ± 7.1%
[4]; 265 µM
  Relative MTT viability (%): 16 ± 3.4%
